Measurements: patent US20250186627A1, “RADIOLABELED COMPOUNDS TARGETING THE PROSTATE-SPECIFIC MEMBRANE ANTIGEN” (PROVINCIAL HEALTH SERVICES AUTHORITY, priority 2022, published 2025)
Values belong to the compound of their own block, whether it stands above or below them.

Test system: NRG-mice bearing LNCaP tumors
Assay: Biodistribution (and PET/SPECT imaging) in NRG-mice bearing LNCaP tumors
Type: in vivo
Conditions: Avg
In short: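 LNCaP xenografts (~10 million cells, left dorsal flank) grown 4-6 weeks to 200-600 mm^3 in NRG mice. Tail-vein injection of 4-6 MBq ^68Ga or 18.5 MBq ^177Lu tracer under isoflurane; CT then 10-min static PET or 1-h SPECT. Biodistribution by gamma counting of weighed organs, expressed as %ID/g.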

- Biodistribution: Adrenal gland (3 h p.i.): 2.79 % ID/g
- Biodistribution: Blood (3 h p.i.): 11.22 % ID/g
- Biodistribution: Bone (3 h p.i.): 1.03 % ID/g
- Biodistribution: Brain (3 h p.i.): 0.18 % ID/g
- Biodistribution: Fat (3 h p.i.): 1.91 % ID/g
- Biodistribution: Heart (3 h p.i.): 2.52 % ID/g
- Biodistribution: Intestine (3 h p.i.): 0.98 % ID/g
- Biodistribution: LNCaP tumor (3 h p.i.): 50.23 % ID/g
- Biodistribution: Lacrimal gland (3 h p.i.): 0.39 % ID/g
- Biodistribution: Liver (3 h p.i.): 2.18 % ID/g
- Biodistribution: Lungs (3 h p.i.): 5.22 % ID/g
- Biodistribution: Muscle (3 h p.i.): 0.87 % ID/g
- Biodistribution: Pancreas (3 h p.i.): 1.07 % ID/g
- Biodistribution: Salivary gland (3 h p.i.): 1.92 % ID/g
- Biodistribution: Seminal gland (3 h p.i.): 0.59 % ID/g
- Biodistribution: Spleen (3 h p.i.): 1.53 % ID/g
- Biodistribution: Stomach (3 h p.i.): 0.58 % ID/g
- Biodistribution: Testes (3 h p.i.): 2.55 % ID/g
- Biodistribution: Thyroid (3 h p.i.): 2.44 % ID/g
- Biodistribution: Urine (3 h p.i.): 180.95 % ID/g
- Biodistribution: kidney (3 h p.i.): 10.42 % ID/g
- Biodistribution: Adrenal gland (24 h p.i.): 0.54 % ID/g
- Biodistribution: Blood (24 h p.i.): 0.70 % ID/g
- Biodistribution: Bone (24 h p.i.): 0.18 % ID/g
- Biodistribution: Brain (24 h p.i.): 0.03 % ID/g
- Biodistribution: Fat (24 h p.i.): 0.33 % ID/g
- Biodistribution: Heart (24 h p.i.): 0.37 % ID/g
- Biodistribution: Intestine (24 h p.i.): 0.23 % ID/g
- Biodistribution: LNCaP tumor (24 h p.i.): 55.39 % ID/g
- Biodistribution: Lacrimal gland (24 h p.i.): 0.00 % ID/g
- Biodistribution: Liver (24 h p.i.): 0.48 % ID/g
- Biodistribution: Lungs (24 h p.i.): 0.65 % ID/g
- Biodistribution: Muscle (24 h p.i.): 0.11 % ID/g
- Biodistribution: Pancreas (24 h p.i.): 0.17 % ID/g
- Biodistribution: Salivary gland (24 h p.i.): 0.56 % ID/g
- Biodistribution: Seminal gland (24 h p.i.): 0.23 % ID/g
- Biodistribution: Spleen (24 h p.i.): 0.37 % ID/g
- Biodistribution: Stomach (24 h p.i.): 0.73 % ID/g
- Biodistribution: Testes (24 h p.i.): 0.37 % ID/g
- Biodistribution: Thyroid (24 h p.i.): 0.52 % ID/g
- Biodistribution: Urine (24 h p.i.): 8.42 % ID/g
- Biodistribution: kidney (24 h p.i.): 4.02 % ID/g
- Biodistribution: Adrenal gland (72 h p.i.): 0.53 % ID/g
- Biodistribution: Blood (72 h p.i.): 0.13 % ID/g
- Biodistribution: Bone (72 h p.i.): 0.05 % ID/g
- Biodistribution: Brain (72 h p.i.): 0.01 % ID/g
- Biodistribution: Fat (72 h p.i.): 0.16 % ID/g
- Biodistribution: Heart (72 h p.i.): 0.18 % ID/g
- Biodistribution: Intestine (72 h p.i.): 0.08 % ID/g
- Biodistribution: LNCaP tumor (72 h p.i.): 45.10 % ID/g
- Biodistribution: Lacrimal gland (72 h p.i.): 0.00 % ID/g
- Biodistribution: Liver (72 h p.i.): 0.29 % ID/g
- Biodistribution: Lungs (72 h p.i.): 0.41 % ID/g
- Biodistribution: Muscle (72 h p.i.): 0.04 % ID/g
- Biodistribution: Pancreas (72 h p.i.): 0.09 % ID/g
- Biodistribution: Salivary gland (72 h p.i.): 0.27 % ID/g
- Biodistribution: Seminal gland (72 h p.i.): 0.06 % ID/g
- Biodistribution: Spleen (72 h p.i.): 0.45 % ID/g
- Biodistribution: Stomach (72 h p.i.): 0.15 % ID/g
- Biodistribution: Testes (72 h p.i.): 0.39 % ID/g
- Biodistribution: Thyroid (72 h p.i.): 0.37 % ID/g
- Biodistribution: Urine (72 h p.i.): 1.12 % ID/g
- Biodistribution: kidney (72 h p.i.): 1.84 % ID/g
- Biodistribution: Adrenal gland (144 h p.i.): 0.31 % ID/g
- Biodistribution: Blood (144 h p.i.): 0.04 % ID/g
- Biodistribution: Bone (144 h p.i.): 0.04 % ID/g
- Biodistribution: Brain (144 h p.i.): 0.01 % ID/g
- Biodistribution: Fat (144 h p.i.): 0.11 % ID/g
- Biodistribution: Heart (144 h p.i.): 0.13 % ID/g
- Biodistribution: Intestine (144 h p.i.): 0.03 % ID/g
- Biodistribution: LNCaP tumor (144 h p.i.): 40.77 % ID/g
- Biodistribution: Lacrimal gland (144 h p.i.): 0.00 % ID/g
- Biodistribution: Liver (144 h p.i.): 0.19 % ID/g
- Biodistribution: Lungs (144 h p.i.): 0.93 % ID/g
- Biodistribution: Muscle (144 h p.i.): 0.03 % ID/g
- Biodistribution: Pancreas (144 h p.i.): 0.06 % ID/g
- Biodistribution: Salivary gland (144 h p.i.): 0.34 % ID/g
- Biodistribution: Seminal gland (144 h p.i.): 0.03 % ID/g
- Biodistribution: Spleen (144 h p.i.): 0.51 % ID/g
- Biodistribution: Stomach (144 h p.i.): 0.03 % ID/g
- Biodistribution: Testes (144 h p.i.): 0.33 % ID/g
- Biodistribution: Thyroid (144 h p.i.): 0.28 % ID/g
- Biodistribution: Urine (144 h p.i.): 0.84 % ID/g
- Biodistribution: kidney (144 h p.i.): 1.10 % ID/g
- Biodistribution: Adrenal gland (240 h p.i.): 0.11 % ID/g
- Biodistribution: Blood (240 h p.i.): 0.01 % ID/g
- Biodistribution: Bone (240 h p.i.): 0.00 % ID/g
- Biodistribution: Brain (240 h p.i.): 0.00 % ID/g
- Biodistribution: Fat (240 h p.i.): 0.06 % ID/g
- Biodistribution: Heart (240 h p.i.): 0.05 % ID/g
- Biodistribution: Intestine (240 h p.i.): 0.02 % ID/g
- Biodistribution: LNCaP tumor (240 h p.i.): 25.30 % ID/g
- Biodistribution: Lacrimal gland (240 h p.i.): 0.00 % ID/g
- Biodistribution: Liver (240 h p.i.): 0.15 % ID/g
- Biodistribution: Lungs (240 h p.i.): 0.09 % ID/g
- Biodistribution: Muscle (240 h p.i.): 0.01 % ID/g
- Biodistribution: Pancreas (240 h p.i.): 0.03 % ID/g
- Biodistribution: Salivary gland (240 h p.i.): 0.10 % ID/g
- Biodistribution: Seminal gland (240 h p.i.): 0.01 % ID/g
- Biodistribution: Spleen (240 h p.i.): 0.46 % ID/g
- Biodistribution: Stomach (240 h p.i.): 0.02 % ID/g
- Biodistribution: Testes (240 h p.i.): 0.16 % ID/g
- Biodistribution: Thyroid (240 h p.i.): 0.12 % ID/g
- Biodistribution: Urine (240 h p.i.): 0.37 % ID/g
- Biodistribution: kidney (240 h p.i.): 0.52 % ID/g
SMILES: COc1ccc(CCCC(=O)NCC(=O)NC(CCCCNC(=O)CN2CCN(CC(=O)[O-])CCN(CC(=O)[O-])CCN(CC(=O)[O-])CC2)CC(=O)NCC2CCC(C(=O)NC(Cc3c4ccccc4cc4ccccc34)C(=O)NCCCCC(NC(=O)NC(CC(F)C(=O)O)C(=O)O)C(=O)O)CC2)cc1.[177Lu+3] (centres unmarked) [^177Lu-CCZ02019]

- Biodistribution: Blood (24 h p.i.): 0.73 % ID/g
- Biodistribution: Bone (24 h p.i.): 0.18 % ID/g
- Biodistribution: Intestine (24 h p.i.): 0.18 % ID/g
- Biodistribution: LNCaP tumor (24 h p.i.): 42.96 % ID/g
- Biodistribution: Liver (24 h p.i.): 0.49 % ID/g
- Biodistribution: Muscle (24 h p.i.): 0.10 % ID/g
- Biodistribution: Salivary gland (24 h p.i.): 0.35 % ID/g
- Biodistribution: Spleen (24 h p.i.): 0.33 % ID/g
- Biodistribution: Urine (24 h p.i.): 19.02 % ID/g
- Biodistribution: kidney (24 h p.i.): 6.06 % ID/g
- Biodistribution: Blood (72 h p.i.): 0.07 % ID/g
- Biodistribution: Bone (72 h p.i.): 0.19 % ID/g
- Biodistribution: Intestine (72 h p.i.): 0.08 % ID/g
- Biodistribution: LNCaP tumor (72 h p.i.): 56.98 % ID/g
- Biodistribution: Liver (72 h p.i.): 0.27 % ID/g
- Biodistribution: Muscle (72 h p.i.): 0.15 % ID/g
- Biodistribution: Salivary gland (72 h p.i.): 0.31 % ID/g
- Biodistribution: Spleen (72 h p.i.): 0.36 % ID/g
- Biodistribution: Urine (72 h p.i.): 4.96 % ID/g
- Biodistribution: kidney (72 h p.i.): 4.30 % ID/g
SMILES: COc1ccc(CCCC(=O)NCC(=O)NC(CCCCNC(=O)CN2CCN(CC(=O)[O-])CCN(CC(=O)[O-])CCN(CC(=O)[O-])CC2)C(=O)NCC2CCC(C(=O)NC(Cc3c4ccccc4cc4ccccc34)C(=O)NCCCCC(NC(=O)NC(CCCC(=O)O)C(=O)O)C(=O)O)CC2)cc1.[177Lu+3] (centres unmarked) [^177Lu-HTK03170, reference compound]
